Laboratory results published in the supplement of paper PMC10307832.

How the values were obtained:
Test in all cases: relative viability (nuclei count vs DMSO), 5 days (fraction); higher = more cells survive
BX 795 + Foretinib = compound: O=C(NCCCNc1nc(Nc2cccc(NC(=O)N3CCCC3)c2)ncc1I)c1cccs1 [BX 795] + COc1cc2c(Oc3ccc(NC(=O)C4(C(=O)Nc5ccc(F)cc5)CC4)cc3F)ccnc2cc1OCCCN1CCOCC1 [Foretinib] (partner 0.25 µM)
Method in brief: (§1)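 One day after seeding in 1536-well plates, lung cancer cell lines were dosed by pin tool. Dosing was either single-drug or a fixed anchor-drug dose plus five library-drug doses (not always all listed) in √10 steps. After 5 days, nuclei were stained in one fix-and-stain step and counted on 4× images, and relative viability is the nuclei count of treated wells over that of vehicle wells, given as the median of duplicate plates.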

BX 795 + Linsitinib = compound: O=C(NCCCNc1nc(Nc2cccc(NC(=O)N3CCCC3)c2)ncc1I)c1cccs1 [BX 795] + C[C@]1(O)C[C@@H](c2nc(-c3ccc4ccc(-c5ccccc5)nc4c3)c3c(N)nccn32)C1 [Linsitinib] (partner 1 µM)
Method in brief: as §1

BX 795 + Tozasertib = compound: O=C(NCCCNc1nc(Nc2cccc(NC(=O)N3CCCC3)c2)ncc1I)c1cccs1 [BX 795] + Cc1cc(Nc2cc(N3CCN(C)CC3)nc(Sc3ccc(NC(=O)C4CC4)cc3)n2)n[nH]1 [Tozasertib] (partner 0.1 µM)
Method in brief: as §1

BX 795 + AZD7762 = compound: O=C(NCCCNc1nc(Nc2cccc(NC(=O)N3CCCC3)c2)ncc1I)c1cccs1 [BX 795] + NC(=O)Nc1cc(-c2cccc(F)c2)sc1C(=O)N[C@H]1CCCNC1 [AZD7762] (partner 0.2 µM)
Method in brief: as §1

BX 795 + Olaparib = compound: O=C(NCCCNc1nc(Nc2cccc(NC(=O)N3CCCC3)c2)ncc1I)c1cccs1 [BX 795] + O=C(c1cc(Cc2n[nH]c(=O)c3ccccc23)ccc1F)N1CCN(C(=O)C2CC2)CC1 [Olaparib] (partner 8 µM)
Method in brief: as §1

Row | Cell Line | relative viability (BX 795 + Foretinib; first compound 0.04 µM) | relative viability (BX 795 + Foretinib; first compound 0.1265 µM) | relative viability (BX 795 + Foretinib; first compound 0.4 µM) | relative viability (BX 795 + Foretinib; first compound 1.265 µM) | relative viability (BX 795 + Linsitinib; first compound 0.04 µM) | relative viability (BX 795 + Linsitinib; first compound 0.1265 µM) | relative viability (BX 795 + Linsitinib; first compound 0.4 µM) | relative viability (BX 795 + Linsitinib; first compound 1.265 µM) | relative viability (BX 795 + Tozasertib; first compound 0.04 µM) | relative viability (BX 795 + Tozasertib; first compound 0.1265 µM) | relative viability (BX 795 + Tozasertib; first compound 0.4 µM) | relative viability (BX 795 + Tozasertib; first compound 1.265 µM) | relative viability (BX 795 + AZD7762; first compound 0.04 µM) | relative viability (BX 795 + AZD7762; first compound 0.1265 µM) | relative viability (BX 795 + AZD7762; first compound 0.4 µM) | relative viability (BX 795 + AZD7762; first compound 1.265 µM) | relative viability (BX 795 + Olaparib; first compound 0.04 µM) | relative viability (BX 795 + Olaparib; first compound 0.1265 µM) | relative viability (BX 795 + Olaparib; first compound 0.4 µM) | relative viability (BX 795 + Olaparib; first compound 1.265 µM)
1 | HCC-366 | 0.973 | 0.959 | 0.94 | 0.235 | 0.469 | 0.727 | 0.257 | 0.3 | 0.228 | 0.0924 | 0.0936 | 0.0708 | 0.228 | 0.227 | 0.19 | 0.306 | 0.336 | 0.404 | 0.175 | 0.252
2 | HCC-827 | 1.18 | 1.12 | 1.09 | 1.04 | 0.972 | 0.849 | 0.987 | 0.75 | 0.416 | 0.45 | 0.429 | 0.417 | 0.206 | 0.224 | 0.211 | 0.221 | 0.448 | 0.621 | 0.525 | 0.639
3 | HOP-62 | 1.04 | 0.967 | 1.37 | 0.923 | 0.915 | 1.02 | 1.2 | 0.525 | 0.381 | 0.441 | 0.361 | 0.275 | 0.602 | 0.715 | 0.672 | 0.528 | 0.419 | 0.265 | 0.266 | 0.605
4 | LC-2-ad | 1.12 | 0.867 | 0.981 | 0.808 | 0.83 | 0.715 | 0.637 | 0.351 | 0.611 | 0.475 | 0.419 | 0.384 | 0.806 | 0.808 | 0.795 | 0.858 | 0.756 | 0.456 | 0.685 | 0.608
5 | LCLC-97TM1 | 0.912 | 0.913 | 0.862 | 0.567 | 0.156 | 0.204 | 0.198 | 0.153 | 0.356 | 0.24 | 0.305 | 0.232 | 0.334 | 0.352 | 0.239 | 0.346 | 0.507 | 0.404 | 0.409 | 0.266
6 | LCLC-103H | 0.848 | 0.843 | 0.847 | 0.621 | 1.12 | 1.16 | 0.901 | 1.09 | 0.476 | 0.475 | 0.477 | 0.379 | 0.706 | 0.878 | 0.712 | 0.849 | 0.794 | 0.73 | 0.761 | 0.763
7 | LK-2 | 0.937 | 1.51 | 1.31 | 1.1 | 0.518 | 0.396 | 0.484 | 0.393 | 0.164 | 0.185 | 0.16 | 0.175 | 0.367 | 0.33 | 0.445 | 0.3 | 0.769 | 0.883 | 0.739 | 0.641
8 | LOU-NH91 | 0.936 | 0.922 | 0.934 | 0.979 | 0.925 | 0.956 | 0.802 | 0.94 | 0.699 | 0.609 | 0.525 | 0.568 | 0.757 | 0.765 | 0.71 | 0.722 | 0.9 | 0.918 | 0.754 | 0.902
9 | LU99A | 0.808 | 0.901 | 0.793 | 0.602 | 0.552 | 0.631 | 0.467 | 0.225 | 0.3 | 0.286 | 0.287 | 0.261 | 0.344 | 0.355 | 0.347 | 0.24 | 0.211 | 0.264 | 0.17 | 0.222
10 | LXF-289 | 0.963 | 0.908 | 1.02 | 0.9 | 0.969 | 0.949 | 1.03 | 0.678 | 0.209 | 0.155 | 0.154 | 0.142 | 1.07 | 1.14 | 0.995 | 1.06 | 1.06 | 1.04 | 1.2 | 0.81
11 | NCI-H23 | 0.943 | 0.872 | 1 | 0.472 | 0.584 | 0.655 | 0.441 | 0.387 | 0.327 | 0.639 | 0.314 | 0.234 | 0.38 | 0.231 | 0.237 | 0.345 | 0.335 | 0.308 | 0.247 | 0.225
12 | NCI-H322M | 0.949 | 1.17 | 0.967 | 1.33 | 0.984 | 1.01 | 1.02 | 0.967 | 0.456 | 0.488 | 0.372 | 0.47 | 0.62 | 0.532 | 0.555 | 0.753 | 0.978 | 0.821 | 0.577 | 0.885
13 | NCI-H358 | 0.656 | 0.837 | 0.532 | 0.393 | 0.679 | 0.705 | 0.601 | 0.228 | 0.1 | 0.107 | 0.0928 | 0.098 | 0.518 | 0.556 | 0.372 | 0.433 | 0.724 | 0.709 | 0.486 | 0.368
